Data on one molecule can be found in patent US4695552A, “Process and reagent for the determination of the hemoglobin-haptoglobin complex in the presence of free hemoglobin” (Boehringer Mannheim GmbH, priority 1983, dated 1987).

What all share (assay type): biochemical
The target in assay [1] is T1, free hemoglobin (Hb) (Homo sapiens, UniProt P68871+P69905). Nature of the assay: Peroxidase reaction of free hemoglobin with peroxide and guaiacol as substrate, with detergent added. The note with it: digitonin 0.5 mg./ml.; guaiacol 30 mmol/l.; pH 4.0; 0.25 mg. Hb/ml. The method, then:
(§1) 2 ml. of a reagent solution containing 0.1 mol/liter of sodium acetate buffer (pH 4.0) and 30 or 15 mmol/liter of guaiacol are mixed with 0.05 ml. of a sample solution which contains free hemoglobin or a hemoglobin-haptoglobin complex with a hemoglobin concentration of 0.25 mg. Hb/ml. The peroxidase reaction is started with 0.1 ml. of 0.58 molar sodium perborate solution in 0.15 molar citric acid and the color development is monitored by extinction measurement at 436 nm. The reaction temperature is 25° C. After a certain time, the color development comes to a stop. Because of the instability of the colored material, the extinction again decreases. The extinction changes given in the following Table 4 are the initial velocities determined by plotting the tangents on the extinction-time curves.
(§2) Analogous measurements are carried out in which, to the reagent solution, there has been added, in each case, one of the detergents given in Table 4 in the there-given concentration.

Assay [2] has as its target T2, hemoglobin haptoglobin complex (Hb:Hp) (Homo sapiens, UniProt P68871+P69905). Nature of the assay: Peroxidase reaction of hemoglobin-haptoglobin complex with peroxide and guaiacol as substrate, with detergent added. The note with it: digitonin 0.5 mg./ml.; guaiacol 30 mmol/l.; pH 4.0. Here is the method: as §1, §2
For assay [3], the target named is T1, free hemoglobin (Hb). Nature of the assay: Peroxidase reaction of free hemoglobin with perborate and ABTS as substrate, with detergent added. The note with it: ABTS 0.5 mmol/l., pH 3.8, 0.25 mg. Hb/ml. Here is the method: (§3) 2 ml. of a reagent solution containing 0.1 mol/liter of sodium citrate buffer (pH 3.8) and 0.5 mmol/liter ABTS are mixed with 0.025 ml. of a sample solution which contains free hemoglobin or the hemoglobin-haptoglobin complex with a hemoglobin concentration of 0.25 mg. Hb/ml. The peroxidase reaction is started with 0.020 ml. of 0.58 molar sodium perborate solution in 0.15 molar citric acid and the color development is monitored by extinction measurement at 436 nm. The reaction temperature is 25° C.
(§4) Analogous measurements are carried out in which, in addition to the above-mentioned components, there are added to the reagent solution the detergents mentioned in the following Table 3 in the concentrations there also given.

For assay [4], the target named is T2, hemoglobin haptoglobin complex (Hb:Hp). Nature of the assay: Peroxidase reaction of hemoglobin-haptoglobin complex with perborate and ABTS as substrate, with detergent added. The conditions noted are these: ABTS 0.5 mmol/l., pH 3.8. The method, then:
as §3, §4

Each structure is given as a SMILES string.

T2 sequence (P69905 2-142 limits assumed): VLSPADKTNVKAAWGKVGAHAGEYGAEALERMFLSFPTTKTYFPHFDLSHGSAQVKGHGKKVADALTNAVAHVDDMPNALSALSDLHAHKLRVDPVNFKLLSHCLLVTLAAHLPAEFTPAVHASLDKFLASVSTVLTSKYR
T2 sequence (P68871 2-147 limits assumed): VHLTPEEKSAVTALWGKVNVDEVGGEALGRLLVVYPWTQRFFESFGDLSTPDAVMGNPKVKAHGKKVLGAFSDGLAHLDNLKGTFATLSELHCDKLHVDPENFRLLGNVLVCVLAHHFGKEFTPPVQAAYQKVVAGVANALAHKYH
T2 sequence (P00738 162-406 partner limits assumed): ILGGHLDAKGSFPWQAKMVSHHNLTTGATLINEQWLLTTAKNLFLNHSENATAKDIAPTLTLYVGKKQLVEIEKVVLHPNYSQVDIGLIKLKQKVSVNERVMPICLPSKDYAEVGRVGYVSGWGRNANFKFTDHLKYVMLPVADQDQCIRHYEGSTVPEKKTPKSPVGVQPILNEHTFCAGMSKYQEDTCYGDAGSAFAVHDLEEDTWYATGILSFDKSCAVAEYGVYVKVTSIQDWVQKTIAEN
T1 sequence (P69905 2-142 limits assumed): as the sequence (P69905 2-142 limits assumed) above
T1 sequence (P68871 2-147 limits assumed): as the sequence (P68871 2-147 limits assumed) above

For `C[C@@H]1CC[C@@]2(OC1)O[C@H]1[C@@H](O)[C@H]3[C@@H]4CC[C@H]5C[C@@H](O[C@@H]6O[C@H](CO)[C@H](O[C@@H]7O[C@H](CO)[C@@H](O)[C@H](O[C@@H]8OC[C@@H](O)[C@H](O)[C@H]8O)[C@H]7O[C@@H]7O[C@H](CO)[C@H](O)[C@H](O[C@@H]8O[C@H](CO)[C@@H](O)[C@H](O)[C@H]8O)[C@H]7O)[C@H](O)[C@H]6O)[C@H](O)C[C@]5(C)[C@H]4CC[C@]3(C)[C@H]1[C@@H]2C` [digitonin], the “ΔE/min. Hb” value in assay [1] was 3 mE/min; in assay [3] (digitonin 0.15 mg./ml.) it was 21.8 mE/min; in assay [3] (digitonin 0.3 mg./ml.), 20 mE/min. In addition, the figures for the “Hb:Hp / Hb” value in assay [2], in assay [4] (digitonin 0.15 mg./ml.) and in assay [4] (digitonin 0.3 mg./ml.) were 50, 37.6 and 41, respectively. The “ΔE/min. Hb:Hp” value in assay [2] is 154 mE/min; in assay [4] (digitonin 0.15 mg./ml.), 818 mE/min; in assay [4] (digitonin 0.3 mg./ml.) it was 818 mE/min.
